Assay results published in patent publication US11702422B2, “Imidazopyridazines as modulators of IL-17” (Janssen Pharmaceutica NV, priority 2020, dated 2023).

Assays:
[1] = target: IL-17A(FLAG-Tagged): IL-17RA(His-Tagged) (Homo sapiens, UniProt Q16552, K93Q); assay: IL-17A(FLAG-Tagged): IL-17RA(His-Tagged) Binding Disruption Eu-HTRF Assay; conditions: IL-17A/IL-17RA binding disruption, simple average if tested more than once
Procedure, shortened: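 IC50 comes from a one-site competition fit of the HTRF 665/620 nm ratio. Compound dilutions (2-fold, 22 points) were held 1 h rt with FLAG-tagged IL-17A dimer, then His-tagged IL-17RA plus Eu-cryptate anti-FLAG and D2 anti-His antibodies were added for 2 h rt.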

[2] = test system: IL-17A-induced G-CSF production in human normal keratinocyte (NHK); assay: NHK Assay: IL-17A-induced G-CSF production in human normal keratinocytes; format: cell-based; conditions: Homo sapiens, Keratinocyte, 24 h, adult normal human keratinocytes, IL-17A 5 ng/mL, simple average if tested more than once
Procedure, shortened: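 IL-17A (5 ng/mL final) was pre-incubated 1 h at rt with titrated compound and then added to adult normal human keratinocytes (5% FBS, 0.2% DMSO) for 24 h at 37° C. Supernatant G-CSF was measured by HTRF against a standard curve to derive IC50. Viability was checked by CellTiter-Glo.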

Chain of UniProt Q16552 (Q16552 with tags, fused parts or gaps K93Q): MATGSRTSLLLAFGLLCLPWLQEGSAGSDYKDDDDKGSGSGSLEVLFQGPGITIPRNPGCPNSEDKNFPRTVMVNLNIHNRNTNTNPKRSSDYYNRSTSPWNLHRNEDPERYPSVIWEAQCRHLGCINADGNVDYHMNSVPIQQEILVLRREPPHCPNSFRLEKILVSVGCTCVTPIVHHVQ

## CC(C)n1nccc1C(=O)N[C@H](c1cn2ncc([C@H](NC(=O)C34CC(F)(C3)C4)C3CC3)cc2n1)C1CCC(F)(F)CC1 [Example 268, N—((S)-(7-((R)-Cyclopropyl(3-fluorobicyclo[1.1.1]pentane-1-carboxamido)methyl)imidazo[1,2-b]pyridazin-2-yl)(4,4-difluorocyclohexyl)methyl)-1-isopropyl-1H-pyrazole-5-carboxamide]
[1]
  IC50: 750 nM
[2]
  IC50: 3000 nM

## Cc1nonc1C(=O)N[C@H](c1cn2ncc([C@H](NC(=O)C34CC(F)(C3)C4)C3CC3)cc2n1)C1CCC(F)(F)CC1 [Example 269, N—((S)-(7-((R)-Cyclopropyl(3-fluorobicyclo[1.1.1]pentane-1-carboxamido)methyl)imidazo[1,2-b]pyridazin-2-yl)(4,4-difluorocyclohexyl)methyl)-4-methyl-1,2,5-oxadiazole-3-carboxamide]
[1]
  IC50: 2000 nM
[2]
  IC50: 20000 nM

## Cc1nonc1C(=O)N[C@H](c1cn2ncc([C@H](NC(=O)CC34CC(F)(C3)C4)C3CC3)cc2n1)C1CCC(F)(F)CC1 [Example 272, N—((S)-(7-((R)-Cyclopropyl(2-(3-fluorobicyclo[1.1.1]pentan-1-yl)acetamido)methyl)imidazo[1,2-b]pyridazin-2-yl)(4,4-difluorocyclohexyl)methyl)-4-methyl-1,2,5-oxadiazole-3-carboxamide]
[1]
  IC50: 86 nM
[2]
  IC50: 290 nM

## CC(C)n1nccc1C(=O)N[C@H](c1cn2ncc([C@H](NC(=O)CC34CC(F)(C3)C4)C3CC3)cc2n1)C1CCC(F)(F)CC1 [Example 273, N—((S)-(7-((R)-Cyclopropyl(2-(3-fluorobicyclo[1.1.1]pentan-1-yl)acetamido)methyl)imidazo[1,2-b]pyridazin-2-yl)(4,4-difluorocyclohexyl)methyl)-1-isopropyl-1H-pyrazole-5-carboxamide]
[1]
  IC50: 160 nM
[2]
  IC50: 71 nM

## CC(C)n1nccc1C(=O)N[C@H](c1cn2ncc([C@H](NC(=O)COC(F)F)C3CC3)cc2n1)C1CCC(F)(F)CC1 [Example 274, N—((S)-(7-((R)-Cyclopropyl(2-(difluoromethoxy)acetamido)methyl)imidazo[1,2-b]pyridazin-2-yl)(4,4-difluorocyclohexyl)methyl)-1-isopropyl-1H-pyrazole-5-carboxamide]
[1]
  IC50: 330 nM
[2]
  IC50: 950 nM

## CC(C)n1nccc1C(=O)N[C@H](c1cn2ncc([C@H](NC(=O)CC3CCCC3(F)F)C3CC3)cc2n1)C1CCC(F)(F)CC1 (stereo partly drawn) [Example 275, N-((1S)-(7-((1R)-Cyclopropyl(2-(2,2-difluorocyclopentyl)acetamido)methyl)imidazo[1,2-b]pyridazin-2-yl)(4,4-difluorocyclohexyl)methyl)-1-isopropyl-1H-pyrazole-5-carboxamide]
[1]
  IC50: 170 nM
[2]
  IC50: 150 nM

## CC(C)n1nccc1C(=O)N[C@H](c1cn2ncc([C@H](NC(=O)COC(F)(F)F)C3CC3)cc2n1)C1CCC(F)(F)CC1 [Example 276, N—((S)-(7-((R)-Cyclopropyl(2-(trifluoromethoxy)acetamido)methyl)imidazo[1,2-b]pyridazin-2-yl)(4,4-difluorocyclohexyl)methyl)-1-isopropyl-1H-pyrazole-5-carboxamide]
[1]
  IC50: 150 nM
[2]
  IC50: 140 nM

## Cc1nonc1C(=O)N[C@H](c1cn2ncc([C@H](NC(=O)COC(F)(F)F)C3CC3)cc2n1)C1CCC(F)(F)CC1 [Example 277, N—((S)-(7-((R)-Cyclopropyl(2-(trifluoromethoxy)acetamido)methyl)imidazo[1,2-b]pyridazin-2-yl)(4,4-difluorocyclohexyl)methyl)-4-methyl-1,2,5-oxadiazole-3-carboxamide]
[1]
  IC50: 180 nM
[2]
  IC50: 690 nM

## Cc1nonc1C(=O)N[C@H](c1cn2ncc([C@H](NC(=O)COC(F)F)C3CC3)cc2n1)C1CCC(F)(F)CC1 [Example 278, N—((S)-(7-((R)-Cyclopropyl(2-(difluoromethoxy)acetamido)methyl)imidazo[1,2-b]pyridazin-2-yl)(4,4-difluorocyclohexyl)methyl)-4-methyl-1,2,5-oxadiazole-3-carboxamide]
[1]
  IC50: 1100 nM
[2]
  IC50: 2500 nM
